From patent publication US9808527B2, “Methods and compositions for treating HIV infections” (priority 2006, dated 2017)

Question: With CC(C)CN(C[C@@H](O)[C@H](Cc1ccccc1)NC(=O)OC1CO[C@H]2OCCC12)S(=O)(=O)c1cccc(O)c1 (stereo partly shown) as the molecule, how does the melting point read?
Answer: 90 to 93 °C
